Assay results: US11529350B2, “Tyrosine kinase non-receptor 1 (TNK1) inhibitors and uses thereof” (Sumitomo Pharma Oncology, Inc., priority 2019, dated 2022)

Key:
TNK1 [1] = target: T1, TNK1 (Homo sapiens, UniProt Q13470); assay: RBC HotSpot Kinase Assay; assay type: biochemical; design: purchased Reaction Biology Corp., Malvern, Pa; settings: ATP 10 μM
T1 sequence (Q13470 1-666): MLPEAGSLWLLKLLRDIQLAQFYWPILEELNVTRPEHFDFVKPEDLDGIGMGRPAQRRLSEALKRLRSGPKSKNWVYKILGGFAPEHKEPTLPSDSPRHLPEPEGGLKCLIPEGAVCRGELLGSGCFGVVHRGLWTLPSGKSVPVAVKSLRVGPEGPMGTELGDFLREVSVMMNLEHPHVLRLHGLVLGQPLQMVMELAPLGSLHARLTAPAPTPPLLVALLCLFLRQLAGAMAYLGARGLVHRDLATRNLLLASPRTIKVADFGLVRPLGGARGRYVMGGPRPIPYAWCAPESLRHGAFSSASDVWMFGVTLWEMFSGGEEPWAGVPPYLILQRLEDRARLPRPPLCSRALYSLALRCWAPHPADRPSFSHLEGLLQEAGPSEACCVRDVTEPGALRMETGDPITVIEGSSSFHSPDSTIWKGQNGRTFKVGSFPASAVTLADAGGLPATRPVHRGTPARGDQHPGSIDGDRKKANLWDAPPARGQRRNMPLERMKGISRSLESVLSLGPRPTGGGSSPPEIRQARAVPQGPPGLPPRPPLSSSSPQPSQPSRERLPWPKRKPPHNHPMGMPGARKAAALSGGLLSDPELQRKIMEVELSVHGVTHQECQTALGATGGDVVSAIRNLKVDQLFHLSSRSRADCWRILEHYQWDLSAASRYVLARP
Experimental: The RBC HotSpot Kinase assay (Reaction Biology Corp., Malvern, Pa.) was used to evaluate the ability of test compounds to modulate (e.g., inhibit) the enzymatic activity of human TNK1 (UniProt Accession No. Q13470) in the following reaction:
Reagent: Base Reaction buffer; 20 mM Hepes (pH 7.5), 10 mM MgCl2, 1 mM EGTA, 0.02% Brij35, 0.02 mg/ml BSA, 0.1 mM Na3VO4, 2 mM DTT, 1% DMSO. Required cofactors were added individually to each kinase reaction.
Compound handling: Test compounds were dissolved in 100% DMSO to specific concentration. The serial dilution was conducted by Integra Viaflo Assist in DMSO.
1. Prepared substrate (peptide substrate, poly[Glu:Tyr] (4:1), 0.2 mg/ml; ATP 10 μM) in freshly prepared Reaction Buffer;
2. Delivered any required cofactors to the substrate solution;
3. Delivered kinase (TNK1) into the substrate solution and gently mixed;
4. Delivered compounds in 100% DMSO into the kinase reaction mixture by Acoustic technology (Echo550; nanoliter range), incubated for 20 minutes at room temperature;
5. Delivered ^33P-ATP (specific activity 10 μCi/μl) into the reaction mixture to initiate the reaction;
6. Incubated for 2 hours at room temperature;
7. Detected radioactivity by filter-binding method;
8. Kinase activity data were expressed as the percent remaining kinase activity in test samples compared to vehicle (dimethyl sulfoxide) reactions. IC50 values and curve fits were obtained using Prism (GraphPad Software).

[2] = system: pSTAT5 in L540 xenograft tumors; assay: pSTAT5 assay in L540 xenograft tumors (ELISA); assay type: in vivo, mouse; settings: 10 mg/kg and 25 mg/kg treated arms
Experimental: Effects of test compounds on phosphorylation of signal transducer and activator of transcription 5 (STAT5) were determined in L540 xenograft tumors.
Methods: Each treatment group included 10 NOD SCID mice. Each mouse was injected with 1×10^7 L540 cells (86% viable at the time of injection), and treated with a single dose of test compound (10 mg/kg or 25 mg/kg) 10 days post L540 cell injection. Tumors were collected 24 hours post treatment, snap frozen, and kept at −80° C. for 24 hours post-harvest. Phosphorylated STAT5 (pSTAT5) levels were measured in the lysates using the STAT5 AB pY694/699 ELISA Kit (Abcam, Cambridge, UK, ab176656). The standard Abcam ELISA protocol was followed, except for 10× more protein than what Abcam recommends was used.

TNK1 [3] = target: T1, TNK1; assay: TNK1 NanoBRET target engagement assay (HEK293); assay type: cell-based; design: host or cells: HEK293; settings: HEK293 cells, 2 hours; read-out: NanoBRET TE Assay (HEK293) IC50
Description: The NanoBRET target engagement (TE) assay (Promega, Madison, Wis.) enables the interrogation of the displacement of a tracer compound in the active site of a recombinant kinase by a test compound in the intracellular setting. The assay enables simultaneous testing of permeability, solubility, and kinase inhibition, and tests the specific interaction of test agents with a kinase of interest, here, TNK1. The assay is based on the principle of bioluminescence resonance energy transfer (BRET). In the assay, a plasmid-encoded, luciferase-tagged form of TNK1 is transfected into cells. A tracer compound is tagged with a fluorophore that fluoresces when bound to the TNK1 protein. Readout is luminescence and fluorescence. Test compounds show activity by displacing the tracer, thus disrupting BRET.
Methods: The TNK1 NanoBRET TE assays were performed according to the manufacturer's protocol. Briefly, Nanoluc-TNK1 Fusion Vector (Promega, Madison, Wis., Cat. No. NV2181) was transfected into HEK293 cells in bulk (8×10^6 cells in a T175 flask). Up to 30 hours post-transfection, cells were harvested by trypsinization, resuspended at a concentration of 2×10^5 cells/mL, and seeded in 96-well plates at 85 μL/well. A test compound and the K5 tracer were added to each well, and the cells were incubated for 2 hours. Luminescence ([…]) and fluorescence ([…]) were measured to determine a BRET ratio. IC50 values were determined from the BRET ratios using the Graphpad Prism software (GraphPad Software, San Diego, Calif.).

Structure (SMILES)	IC50 (TNK1 [1]) [nM]	IC50 (TNK1 [3]) [nM]	dose dependence of p-STAT5 decrease [2]
CN1CCN(c2ccc(Nc3ncc(Cl)c(Nc4cccnc4N4CCCC4=O)n3)cc2)CC1 [compound 1, 1-(3-((5-chloro-2-((4-(4-methylpiperazin-1-yl)phenyl)amino)pyrimidin-4-yl)amino)pyridin-2-yl)pyrrolidin-2-one]	< 5	< 150	–
COc1cc(N2CCN(C)CC2)ccc1Nc1ncc(Cl)c(Nc2cccnc2N2CCCC2=O)n1 [compound 2, 1-(3-((5-chloro-2-((2-methoxy-4-(4-methylpiperazin-1-yl)phenyl)amino)pyrimidin-4-yl)amino)pyridin-2-yl)pyrrolidin-2-one]	< 5	< 150	–
COc1cc(N2CCN(C)CC2)c(Cl)cc1Nc1ncc(Cl)c(Nc2cccnc2N2CCCC2=O)n1 [Example No. 13, 1-(3-((5-chloro-2-((5-chloro-2-methoxy-4-(4-methylpiperazin-1-yl)phenyl)amino)pyrimidin-4-yl)amino)pyridin-2-yl)pyrrolidin-2-one]	< 5	< 150	–
CN1CCN(c2c(Cl)cc(Nc3ncc(Cl)c(Nc4cccnc4N4CCCC4=O)n3)c3ccccc23)CC1 [Example No. 18, 1-(3-((5-chloro-2-((3-chloro-4-(4-methylpiperazin-1-yl)naphthalen-1-yl)amino)pyrimidin-4-yl)amino)pyridin-2-yl)pyrrolidin-2-one]	< 5	< 150	–

Continued, in another order:

IC50 (TNK1 [1]) [nM]	IC50 (TNK1 [3]) [nM]	Structure (SMILES)	dose dependence of p-STAT5 decrease [2]
< 5	< 150	COc1cc(N2CCN(C)CC2)c(C)cc1Nc1ncc(Cl)c(Nc2cccnc2N2CCNC2=O)n1 [compound 9, 1-(3-((5-chloro-2-((2-methoxy-5-methyl-4-(4-methylpiperazin-1-yl)phenyl)amino)pyrimidin-4-yl)amino)pyridin-2-yl)imidazolidin-2-one]	showed some dose dependence
15 to 50	> 1000	CC(C)Oc1cc(N2CCN(C)CC2)ccc1Nc1ncc(Cl)c(Nc2cccnc2N(C)C)n1 [compound 4, 5-chloro-N^4-(2-(dimethylamino)pyridin-3-yl)-N^2-(2-isopropoxy-4-(4-methylpiperazin-1-yl)phenyl)pyrimidine-2,4-diamine]	–
< 5	< 150	COc1cc(N2CCN(C)CC2)c(C)cc1Nc1ncc(Br)c(Nc2cccnc2N(C)C)n1 [compound 10, 5-bromo-N^4-(2-(dimethylamino)pyridin-3-yl)-N^2-(2-methoxy-5-methyl-4-(4-methylpiperazin-1-yl)phenyl)pyrimidine-2,4-diamine]	showed some dose dependence
5 to 15	150 to 1000	CN1CCN(c2ccc(Nc3ncc(Cl)c(Nc4cccnc4N(C)C)n3)cc2)CC1 [compound 5, 5-chloro-N^4-(2-(dimethylamino)pyridin-3-yl)-N^2-(4-(4-methylpiperazin-1-yl)phenyl)pyrimidine-2,4-diamine]	–
15 to 50	> 1000	CCOc1cc(N2CCN(C)CC2)ccc1Nc1ncc(Cl)c(Nc2cccnc2N(C)C)n1 [compound 3, 5-chloro-N^4-(2-(dimethylamino)pyridin-3-yl)-N^2-(2-ethoxy-4-(4-methylpiperazin-1-yl)phenyl)pyrimidine-2,4-diamine]	–
< 5	< 150	COc1cc(N2CCN(C)CC2)c(Cl)cc1Nc1ncc(Cl)c(Nc2cccnc2N2CCNC2=O)n1 [Example No. 21, 1-(3-((5-chloro-2-((5-chloro-2-methoxy-4-(4-methylpiperazin-1-yl)phenyl)amino)pyrimidin-4-yl)amino)pyridin-2-yl)imidazolidin-2-one]	–
